Activity calls are given as the source filed them. No cut-off for these calls is given here.
Legend:
Staphylococcus aureus [1] = test: Inhibition of biofilm formation in methicillin-resistant Staphylococcus aureus ATCC43300 assessed as decrease in biofilm formation rate at 16 times of MIC incubated for 24 hrs by crystal violet staining based analysis relative to control; assay type: functional; design: scale not given: the % may be the effect or the level left
Escherichia coli [2] = test: Antibacterial activity against penicillin-susceptible Escherichia coli ATCC25922 assessed as log reduction in bacterial count measured after 8 hrs by time kill kinetics assay; assay type: functional, organism-based
Escherichia coli [3] = test: Drug resistance, ratio of MIC for penicillin-susceptible Escherichia coli ATCC25922 incubated for 18 to 24 hrs and measured after 4 passages to MIC for penicillin-susceptible Escherichia coli ATCC25922 measured after 18 to 24 hrs; assay type: functional
Escherichia coli [4] = test: Antibacterial activity against penicillin-susceptible Escherichia coli ATCC25922 assessed as log reduction in bacterial count at 4 times of MIC measured after 1 hrs by time kill kinetics assay; assay type: functional
Escherichia coli [5] = test: Drug resistance, ratio of MIC for penicillin-susceptible Escherichia coli ATCC25922 incubated for 18 to 24 hrs and measured after 21 passages to MIC for penicillin-susceptible Escherichia coli ATCC25922 measured after 18 to 24 hrs; assay type: functional
Cell membrane [6] = test: Disruption of cell membrane integrity in methicillin-resistant Staphylococcus aureus ATCC43300 assessed as cell wall disruption at 4 times of MIC incubated for 2 hrs by transmission electron microscopic analysis; assay type: cell membranes
Cell membrane [7] = test: Disruption of cell membrane integrity in methicillin-resistant Staphylococcus aureus ATCC43300 assessed as leakage of intracellular contents at 4 times of MIC incubated for 2 hrs by transmission electron microscopic analysis; assay type: cell membranes
[8] = Cytotoxicity against mouse RAW264.7 cells assessed as cell viability at 3.125 microg/ml incubated for 24 hrs by CCK8 assay relative to control; assay type: toxicity, cell-based; conditions: dose 3.125 µg/ml, read-out: Activity
Escherichia coli [9] = test: Antibacterial activity against penicillin-susceptible Escherichia coli ATCC25922 assessed as reduction in bacterial count incubated for 24 hrs by time kill kinetics assay; assay type: functional, organism-based
Escherichia coli [10] = test: Antibacterial activity against penicillin-susceptible Escherichia coli ATCC25922 assessed as log reduction in bacterial count by time kill kinetics assay; assay type: functional
Staphylococcus aureus [11] = test: Inhibition of biofilm formation in methicillin-resistant Staphylococcus aureus ATCC43300 assessed as decrease in biofilm formation rate at higher concentration incubated for 24 hrs by crystal violet staining based analysis relative to control; assay type: functional; design: scale not given: the % may be the effect or the level left
Cell membrane [12] = test: Disruption of cell membrane integrity in penicillin-susceptible Escherichia coli ATCC25922 assessed as scattered leakage of content at 4 times of MIC incubated for 2 hrs by transmission electron microscopic analysis; assay type: cell membranes

O=C1c2ccccc2-[n+]2ccc3c([nH]c4ccc(-c5ccccc5F)cc43)c21.[Cl-]
Activity (Staphylococcus aureus [1]): 12% | Activity (Escherichia coli [2]): inactive | Ratio (Escherichia coli [3]): 12

O=C1c2ccccc2-[n+]2ccc3c([nH]c4ccc(-c5ccccc5C(F)(F)F)cc43)c21.[Cl-]
Activity (Escherichia coli [4]): 3 log10CFU/ml | Ratio (Escherichia coli [5]): 12 | Activity (Cell membrane [6]): Active | Activity (Cell membrane [7]): Active | viability at 24 h, 3.125 microg/ml [8]: 81% | Activity (Escherichia coli [9]): Dose-Dependent Effect

O=C1c2ccccc2-[n+]2ccc3c([nH]c4ccc(-c5ccccc5Cl)cc43)c21.[Cl-]
Activity (Escherichia coli [10]): 1 log10CFU/ml | Activity (Staphylococcus aureus [11]): 15% | Activity (Cell membrane [12]): Active

From ChEMBL document CHEMBL5500342, “Rational molecular design converting fascaplysin derivatives to potent broad-spectrum inhibitors against bacterial pathogens via targeting FtsZ” (Eur J Med Chem, 2024)
